We go through 18 compounds from patent publication US12637471B2, “Heterocyclic compounds, compositions, methods of preparation and uses thereof” (Organon R&D Finland Ltd, priority 2021, dated 2026).

As usually defined, the inhibition is the drop in the measured response relative to a control, in per cent.

What all share (type): biochemical
Assay [1] concerns the target T1, Recombinant human AKR1C3 (17β-HSD5) protein (Homo sapiens, UniProt P42330).
T1 construct: made in house; host or cells: E. coli
T1 sequence (P42330 1-323): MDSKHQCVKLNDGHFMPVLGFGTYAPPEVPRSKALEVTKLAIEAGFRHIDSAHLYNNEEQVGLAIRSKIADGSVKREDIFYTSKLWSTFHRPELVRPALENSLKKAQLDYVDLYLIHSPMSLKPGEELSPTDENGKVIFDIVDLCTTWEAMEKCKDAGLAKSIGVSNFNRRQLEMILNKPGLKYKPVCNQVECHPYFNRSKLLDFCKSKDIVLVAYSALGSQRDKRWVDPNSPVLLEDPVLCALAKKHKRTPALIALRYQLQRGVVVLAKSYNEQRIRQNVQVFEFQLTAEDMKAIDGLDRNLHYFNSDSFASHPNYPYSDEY
As to the kind of experiment: Inhibition of AKR1C3 (17β-hydroxysteroid dehydrogenase type 5) enzyme, fluorescence assay. The following applies: inhibitor at 500 nM. Summed up:
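E. coli-expressed human AKR1C3 (27 nM) in 20 mM KH2PO4, 1 mM EDTA, pH 7.4, with 1 μM pyranoquinolinone ketone substrate, 1 mM NADPH and inhibitor at 500 nM, 1% DMSO, 60–120 min at RT. Fluorescent alcohol product (ex 420/em 510 nm) quantified against standards; inhibition derived from conversion percentages.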

Assay [2] has as its target T2, 17β-Hydroxysteroid Dehydrogenase Type 2 Enzyme (17β-HSD2) (Homo sapiens, UniProt P37059).
T2 construct: made in house; host or cells: Sf-9 insect cells (baculovirus)
T2 sequence (P37059 1-387): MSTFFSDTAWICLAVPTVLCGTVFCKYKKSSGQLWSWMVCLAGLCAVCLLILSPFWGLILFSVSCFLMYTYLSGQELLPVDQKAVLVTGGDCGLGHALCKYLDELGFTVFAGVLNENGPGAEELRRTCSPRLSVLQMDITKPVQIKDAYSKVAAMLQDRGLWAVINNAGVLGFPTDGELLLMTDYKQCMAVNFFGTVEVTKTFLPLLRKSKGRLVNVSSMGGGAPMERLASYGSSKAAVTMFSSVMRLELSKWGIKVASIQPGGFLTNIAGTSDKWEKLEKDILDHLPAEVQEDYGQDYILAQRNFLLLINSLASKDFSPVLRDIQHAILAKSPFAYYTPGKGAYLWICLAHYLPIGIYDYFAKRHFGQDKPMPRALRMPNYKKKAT
As to the kind of experiment: Inhibition of the 17β-hydroxysteroid dehydrogenase type 2 enzyme, 3H-testosterone conversion. The following applies: inhibitor at 10 μM. Summed up:
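Recombinant human 17β-HSD2 (Sf-9/baculovirus; 105 nM) incubated with 56.25 nM ³H-testosterone and 1 mM NAD in 20 mM KH2PO4 pH 8.5, 1 mM EDTA, 1% DMSO, 30 min at RT, inhibitor 10 μM. Reaction stopped with TCA; conversion to ³H-androstenedione by radio-UPLC gives percent inhibition.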

Assay [3] addresses T3, Recombinant human aldo-keto reductase family 1 member C2 (AKR1C2) protein (Homo sapiens, UniProt P52895).
T3 construct: made in house; host or cells: Sf-9 insect cells (baculovirus)
T3 sequence (P52895 1-323): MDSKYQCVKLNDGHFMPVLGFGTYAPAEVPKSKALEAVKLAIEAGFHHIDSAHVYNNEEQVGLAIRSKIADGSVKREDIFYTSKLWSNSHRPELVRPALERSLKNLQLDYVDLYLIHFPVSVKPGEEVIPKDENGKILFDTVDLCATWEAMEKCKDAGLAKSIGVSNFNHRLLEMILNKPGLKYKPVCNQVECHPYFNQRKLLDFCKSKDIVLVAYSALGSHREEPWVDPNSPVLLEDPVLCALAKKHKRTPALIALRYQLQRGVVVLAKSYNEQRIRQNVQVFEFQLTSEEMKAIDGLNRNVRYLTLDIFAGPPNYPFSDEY
The experiment in a line: Inhibition of the aldo-keto reductase family 1 member C2, 3H-dihydrotestosterone conversion. The note with it: inhibitor at 10 μM. Summed up:
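Sf-9-expressed enzyme (13.6 nM) incubated 45 min at 37 °C in 20 mM KH2PO4 pH 7.4 with 1 mM NADPH, 6.25 nM [3H]dihydrotestosterone and 10 μM compound (1% DMSO). After TCA stop, substrate and 5α-androstane-3α,17β-diol resolved by UPLC with radio-detection; inhibition from percent conversion.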

Consider `N#CC(=C1CCN(C(=O)N2CCn3nncc3C2)CC1)c1ccc(C(F)(F)F)cc1` [Compound 150, 2-(1-(4,5,6,7-tetrahydro-[1,2,3]triazolo[1,5-a]pyrazine-5-carbonyl)piperidin-4-ylidene)-2-(4-(trifluoromethyl)phenyl)acetonitrile], for which the inhibition at 0.5 µM in assay [1] was 100%. The inhibition at 10 µM in assay [2] turned out to be 6%; in assay [3], 21%.

With `CC(O)C1CCN(C(=O)N2CCC(=C(C#N)c3ccc(C(F)(F)F)cc3)CC2)CC1` (stereo not drawn) [Compound 151, 2-(1-(4-(1-hydroxyethyl)piperidine-1-carbonyl)piperidin-4-ylidene)-2-(4-(trifluoromethyl)phenyl)acetonitrile], the inhibition at 0.5 µM in assay [1] was 93%. The inhibition at 10 µM in assay [2] is 18%; in assay [3] it was 11%.

In the case of `N#CC(=C1CCN(C(=O)N2CCn3ncnc3C2)CC1)c1ccc(C(F)(F)F)cc1` [Compound 152, 2-(1-(5,6,7,8-tetrahydro-[1,2,4]triazolo[1,5-a]pyrazine-7-carbonyl)piperidin-4-ylidene)-2-(4-(trifluoromethyl)phenyl)acetonitrile], the inhibition at 0.5 µM in assay [1] was 99%. Also, the inhibition at 10 µM worked out at 8% in assay [2] and 4% in assay [3].

`COCC1CCN(C(=O)N2CCC(=C(C#N)c3cccc(Cl)c3)CC2)CC1` [Compound 153, 2-(3-chlorophenyl)-2-(1-(4-(methoxymethyl)piperidine-1-carbonyl)piperidin-4-ylidene)acetonitrile]: the inhibition at 0.5 µM in assay [1] turned out to be 95%. For the same compound, the results for the inhibition at 10 µM in assay [2] and in assay [3] were 26% and 14%, respectively.

As for `CC(O)C1CCN(C(=O)N2CCC(=C(C#N)c3cccc(Cl)c3)CC2)CC1` (stereo not drawn) [Compound 154, 2-(3-chlorophenyl)-2-(1-(4-(1-hydroxyethyl)piperidine-1-carbonyl)piperidin-4-ylidene)acetonitrile], the inhibition at 0.5 µM in assay [1] is 98%. Besides, the figures for the inhibition at 10 µM in assay [2] and in assay [3] were 26% and 14%, respectively.

For the compound `N#CC(=C1CCN(C(=O)N2CCn3nncc3C2)CC1)c1cccc(Cl)c1` [Compound 155, 2-(3-chlorophenyl)-2-(1-(4,5,6,7-tetrahydro-[1,2,3]triazolo[1,5-a]pyrazine-5-carbonyl)piperidin-4-ylidene)acetonitrile], the inhibition at 0.5 µM in assay [1] worked out at 99%. For the same compound, the figures for the inhibition at 10 µM in assay [2] and in assay [3] were 19% and 21%, respectively.

In the case of `N#CC(=C1CCN(C(=O)N2C3CCC2COC3)CC1)c1cccc(Cl)c1` [Compound 156, 2-(1-(3-oxa-8-azabicyclo[3.2.1]octane-8-carbonyl)piperidin-4-ylidene)-2-(3-chlorophenyl)acetonitrile], in assay [1], the inhibition at 0.5 µM was determined as 99%. The inhibition at 10 µM in assay [2] came out at 12%; in assay [3], 8%.

Take `N#CC(=C1CCN(C(=O)N2CCn3ncnc3C2)CC1)c1cccc(Cl)c1` [Compound 157, 2-(3-chlorophenyl)-2-(1-(5,6,7,8-tetrahydro-[1,2,4]triazolo[1,5-a]pyrazine-7-carbonyl)piperidin-4-ylidene)acetonitrile]: the inhibition at 0.5 µM in assay [1] was 99%. Moreover, the values for the inhibition at 10 µM in assay [2] and in assay [3] were 8% and 2%, respectively.

Consider `N#CC(=C1CCN(C(=O)N2CCc3nocc3C2)CC1)c1cc(F)cc(F)c1` [Compound 158, 2-(3,5-difluorophenyl)-2-(1-(4,5,6,7-tetrahydroisoxazolo[4,3-c]pyridine-5-carbonyl)piperidin-4-ylidene)acetonitrile], for which, in assay [1], the inhibition at 0.5 µM is 101%. Besides, the values for the inhibition at 10 µM in assay [2] and in assay [3] were -4% and 22%, respectively.

As for `N#CC(=C1CCN(C(=O)N2CCc3nocc3C2)CC1)c1ccc(OC(F)(F)F)cc1` [Compound 159, 2-(1-(4,5,6,7-tetrahydroisoxazolo[4,3-c]pyridine-5-carbonyl)piperidin-4-ylidene)-2-(4-(trifluoromethoxy)phenyl)acetonitrile], the inhibition at 0.5 µM in assay [1] stood at 100%. In addition, the inhibition at 10 µM in assay [2] was determined as 1%; in assay [3] it was 14%.

On to `N#CC(=C1CCN(C(=O)N2CCc3nocc3C2)CC1)c1ccc(Cl)s1` [Compound 160, 2-(5-chlorothiophen-2-yl)-2-(1-(4,5,6,7-tetrahydroisoxazolo[4,3-c]pyridine-5-carbonyl)piperidin-4-ylidene)acetonitrile], for which, in assay [1], the inhibition at 0.5 µM came to 99%. The figures for the inhibition at 10 µM in assay [2] and in assay [3] were 18% and 34%, respectively.

With `N#CC(=C1CCN(C(=O)N2CCc3nocc3C2)CC1)c1ccc(Cl)cn1` [Compound 161, 2-(5-chloropyridin-2-yl)-2-(1-(4,5,6,7-tetrahydroisoxazolo[4,3-c]pyridine-5-carbonyl)piperidin-4-ylidene)acetonitrile], in assay [1], the inhibition at 0.5 µM amounted to 98%. In addition, the values for the inhibition at 10 µM in assay [2] and in assay [3] were 7% and 19%, respectively.

On to `N#CC(=C1CCN(C(=O)N2CCn3nncc3C2)CC1)c1ccc(OC(F)(F)F)cc1` [Compound 162, 2-(1-(4,5,6,7-tetrahydro-[1,2,3]triazolo[1,5-a]pyrazine-5-carbonyl)piperidin-4-ylidene)-2-(4-(trifluoromethoxy)phenyl)acetonitrile], for which the inhibition at 0.5 µM in assay [1] amounted to 98%. The inhibition at 10 µM in assay [2] turned out to be 1%; in assay [3] it was 17%.

As to `N#CC(=C1CCN(C(=O)N2CCn3nncc3C2)CC1)c1ccc(Cl)cn1` [Compound 163, 2-(5-chloropyridin-2-yl)-2-(1-(4,5,6,7-tetrahydro-[1,2,3]triazolo[1,5-a]pyrazine-5-carbonyl)piperidin-4-ylidene)acetonitrile], the inhibition at 0.5 µM in assay [1] worked out at 97%. Besides, the inhibition at 10 µM came out at 9% in assay [2] and 2% in assay [3].

Consider `N#CC(=C1CCN(C(=O)N2CCn3ncnc3C2)CC1)c1ccc(Cl)cc1` [Compound 164, 2-(4-chlorophenyl)-2-(1-(5,6,7,8-tetrahydro-[1,2,4]triazolo[1,5-a]pyrazine-7-carbonyl)piperidin-4-ylidene)acetonitrile], for which the inhibition at 0.5 µM in assay [1] stood at 99%. Also, the inhibition at 10 µM was determined as 10% in assay [2] and 12% in assay [3].

In the case of `N#CC(=C1CCN(C(=O)N2CCn3ncnc3C2)CC1)c1ccc(Cl)cn1` [Compound 165, 2-(5-chloropyridin-2-yl)-2-(1-(5,6,7,8-tetrahydro-[1,2,4]triazolo[1,5-a]pyrazine-7-carbonyl)piperidin-4-ylidene)acetonitrile], the inhibition at 0.5 µM in assay [1] was 95%. The inhibition at 10 µM in assay [2] was found to be 6%; in assay [3], 9%.

On to `N#CC(=C1CCN(C(=O)N2CCn3ncnc3C2)CC1)c1cc(F)cc(F)c1` [Compound 166, 2-(3,5-difluorophenyl)-2-(1-(5,6,7,8-tetrahydro-[1,2,4]triazolo[1,5-a]pyrazine-7-carbonyl)piperidin-4-ylidene)acetonitrile], for which the inhibition at 0.5 µM in assay [1] was found to be 96%. The inhibition at 10 µM in assay [2] is 2%; in assay [3] it was 13%.

On to `N#CC(=C1CCN(C(=O)N2CCn3ncnc3C2)CC1)c1ccc(OC(F)(F)F)cc1` [Compound 167, 2-(1-(5,6,7,8-tetrahydro-[1,2,4]triazolo[1,5-a]pyrazine-7-carbonyl)piperidin-4-ylidene)-2-(4-(trifluoromethoxy)phenyl)acetonitrile], for which, in assay [1], the inhibition at 0.5 µM was 97%. Moreover, the inhibition at 10 µM in assay [2] was -1%; in assay [3], 7%.
